Results reported in US11230526B1, “Cylcoalkenyl derivatives useful as agonists of the GPR120 and/or GPR40 receptors” (Janssen Pharmaceutica NV, priority 2018, dated 2022).

Target: T1, short form of the GPR120 receptor (Homo sapiens, UniProt Q5NUL3)
T1 construct: host or cells: PathHunter CHO-K1 GPR120S β-Arrestin Cell Line
Experiment: Human GPR120 DiscoveRx PathHunter Beta-Arrestin assay, Procedure β-arrestin B
Type: cell-based

T1 sequence (Q5NUL3 whole entry): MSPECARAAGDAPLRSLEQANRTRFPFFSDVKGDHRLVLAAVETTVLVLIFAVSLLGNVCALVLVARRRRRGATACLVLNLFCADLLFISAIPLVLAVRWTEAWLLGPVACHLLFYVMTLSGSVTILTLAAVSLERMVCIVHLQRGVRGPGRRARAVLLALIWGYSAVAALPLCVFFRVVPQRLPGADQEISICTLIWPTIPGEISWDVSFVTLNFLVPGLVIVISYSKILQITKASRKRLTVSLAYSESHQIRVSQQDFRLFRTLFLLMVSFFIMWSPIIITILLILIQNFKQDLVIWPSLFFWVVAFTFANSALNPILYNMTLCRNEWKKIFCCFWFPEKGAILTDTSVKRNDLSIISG
T1 sequence (P32121 whole entry partner): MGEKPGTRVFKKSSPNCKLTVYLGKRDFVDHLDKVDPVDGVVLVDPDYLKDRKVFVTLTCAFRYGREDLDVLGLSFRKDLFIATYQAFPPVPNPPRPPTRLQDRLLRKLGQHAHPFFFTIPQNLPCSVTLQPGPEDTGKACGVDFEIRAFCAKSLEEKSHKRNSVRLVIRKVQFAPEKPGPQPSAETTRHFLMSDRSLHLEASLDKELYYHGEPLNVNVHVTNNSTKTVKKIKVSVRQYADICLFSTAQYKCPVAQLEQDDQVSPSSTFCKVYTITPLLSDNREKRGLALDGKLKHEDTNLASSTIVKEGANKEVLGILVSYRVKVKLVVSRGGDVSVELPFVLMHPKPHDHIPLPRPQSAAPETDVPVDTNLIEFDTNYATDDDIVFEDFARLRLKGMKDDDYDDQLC

Cc1c(CCC(=O)O)ccc(OCC2=C(c3cccnc3)CCC2)c1C [Compound 108, 3-[2,3-dimethyl-4-[[2-(3-pyridyl)cyclopenten-1-yl]methoxy]phenyl]Propanoic Acid]
EC50: 807 nM

Cc1ccc(C2=C(COc3c(F)cc(CCC(=O)O)cc3F)CCC2)cc1[N+](=O)[O-] [Compound 109, 3-(3,5-difluoro-4-((2-(4-methyl-3-nitrophenyl)cyclopent-1-en-1-yl)methoxy)phenyl)Propanoic Acid]
EC50: 2460 nM

Cc1c(CCC(=O)O)ccc(OCC2=C(c3ccccc3Br)CCC2)c1C [Compound 111, 3-[4-[[2-(2-bromophenyl)cyclopenten-1-yl]methoxy]-2,3-dimethyl-phenyl]Propanoic Acid]
EC50: 2710 nM

O=C(O)CCc1c(F)c(F)c(OCC2=C(c3ccc(Cl)cc3)CCC2)c(F)c1F [Compound 122, 3-[4-[[2-(4-chlorophenyl)cyclopenten-1-yl]methoxy]-2,3,5,6-tetrafluoro-phenyl]Propanoic Acid]
EC50: 397 nM

Cc1c(CCC(=O)O)ccc(OCC2=C(c3ccccc3F)CCC2)c1C [Compound 124, 3-[4-[[2-(2-fluorophenyl)cyclopenten-1-yl]methoxy]-2,3-dimethyl-phenyl]Propanoic Acid]
EC50: 235 nM

Cc1cc(OCC2=C(c3ccc(Cl)cc3)CCC2)ccc1CCC(=O)O [Compound 131, 3-[4-[[2-(4-chlorophenyl)cyclopenten-1-yl]methoxy]-2-methyl-phenyl]Propanoic Acid]
EC50: 566 nM

Cc1ccccc1C1=C(COc2ccc(CCC(=O)O)c(C)c2C)CCC1 [Compound 132, 3-[2,3-dimethyl-4-[[2-(o-tolyl)cyclopenten-1-yl]methoxy]phenyl]Propanoic Acid]
EC50: 1800 nM

Cc1c(CCC(=O)O)ccc(OCC2=C(c3ccc(Cl)cc3Cl)CCC2)c1C [Compound 133, 3-[4-[[2-(2,4-dichlorophenyl)cyclopenten-1-yl]methoxy]-2,3-dimethyl-phenyl]Propanoic Acid]
EC50: 1130 nM

Cc1ccc(C2=C(COc3ccc(CCC(=O)O)c(C)c3C)CCC2)cc1N [Compound 134, 3-(4-((2-(3-amino-4-methylphenyl)cyclopent-1-en-1-yl)methoxy)-2,3-dimethylphenyl)Propanoic Acid]
EC50: 740 nM

COc1cccc(C2=C(COc3ccc(CCC(=O)O)c(C)c3C)CCC2)c1 [Compound 141, 3-[4-[[2-(3-methoxyphenyl)cyclopenten-1-yl]methoxy]-2,3-dimethyl-phenyl]Propanoic Acid]
EC50: 1230 nM

Cc1c(CCC(=O)O)ccc(OCC2=C(c3ccccn3)CCC2)c1C [Compound 147, 3-[2,3-dimethyl-4-[[2-(2-pyridyl)cyclopenten-1-yl]methoxy]phenyl]Propanoic Acid]
EC50: 923 nM

O=C(O)CCc1ccc(OCC2=C(c3ccc(Cl)cc3)CCC2)c(F)c1 [Compound 149, 3-[4-[[2-(4-chlorophenyl)cyclopenten-1-yl]methoxy]-3-fluoro-phenyl]Propanoic Acid]
EC50: 90 nM

O=C(O)CCc1ccc(OCC2=C(c3ccc(Cl)cc3)CCC2)cc1 [Compound 153, 3-[4-[[2-(4-chlorophenyl)cyclopenten-1-yl]methoxy]phenyl]Propanoic Acid]
EC50: 93 nM

Cc1c(CCC(=O)O)ccc(OCC2=C(c3ccc(Cl)nc3)CCC2)c1C [Compound 158, 3-(4-((2-(6-chloropyridin-3-yl)cyclopent-1-en-1-yl)methoxy)-2,3-dimethylphenyl)Propanoic Acid]
EC50: 324 nM

Cc1cc(CCC(=O)O)ccc1OCC1=C(c2ccc(Cl)c(F)c2)CCC1 [Compound 159, 3-(4-((2-(4-chloro-3-fluorophenyl)cyclopent-1-en-1-yl)methoxy)-3-methylphenyl)Propanoic Acid]
EC50: 56 nM

Cc1cc(CCC(=O)O)ccc1OCC1=C(c2ccc(Cl)cc2)CCC(F)(F)C1 [Compound 467, 3-(4-((4′-chloro-4,4-difluoro-3,4,5,6-tetrahydro-[1,1′-biphenyl]-2-yl)methoxy)-3-methylphenyl)Propanoic Acid]
EC50: 104 nM

Cc1c(CCC(=O)O)ccc(OCC2=C(c3ccc(Cl)cc3)CCC(F)(F)C2)c1C [Compound 468, 3-[4-[[2-(4-chlorophenyl)-5,5-difluoro-cyclohexen-1-yl]methoxy]-2,3-dimethyl-phenyl]Propanoic Acid]
EC50: 244 nM

Cc1c(CCC(=O)O)ccc(OCC2=C(c3ccccc3)CCCC2)c1C [Compound 472, 3-[2,3-dimethyl-4-[(2-phenylcyclohexen-1-yl)methoxy]phenyl]Propanoic Acid]
EC50: 488 nM

Cc1c(CCC(=O)O)ccc(OCC2=C(c3ccc(Cl)cc3)CCCC2)c1C [Compound 474, 3-[4-[[2-(4-chlorophenyl)cyclohexen-1-yl]methoxy]-2,3-dimethyl-phenyl]Propanoic Acid]
EC50: 1030 nM

O=C(O)CCc1c(F)c(F)c(OCC2=C(c3ccc(Cl)cc3)CCCC2)c(F)c1F [Compound 479, 3-[4-[[2-(4-chlorophenyl)cyclohexen-1-yl]methoxy]-2,3,5,6-tetrafluoro-phenyl]Propanoic Acid]
EC50: 682 nM

Cc1cc(CCC(=O)O)ccc1OCC1=C(c2ccc(Cl)cc2)CCCC1 [Compound 483, 3-[4-[[2-(4-chlorophenyl)cyclohexen-1-yl]methoxy]-3-methyl-phenyl]Propanoic Acid]
EC50: 155 nM

Cc1ccc(C2=C(COc3c(F)cc(CCC(=O)O)cc3F)CCCC2)cc1F [Compound 493, 3-[3,5-difluoro-4-[[2-(3-fluoro-4-methyl-phenyl)cyclohexen-1-yl]methoxy]phenyl]Propanoic Acid]
EC50: 356 nM

Cc1ccc(C2=C(COc3ccc(CCC(=O)O)c(F)c3F)CCCC2)cc1F [Compound 494, 3-[2,3-difluoro-4-[[2-(3-fluoro-4-methyl-phenyl)cyclohexen-1-yl]methoxy]phenyl]Propanoic Acid]
EC50: 401 nM

Cc1ccc(C2=C(COc3ccc(CCC(=O)O)c(C)c3C)CCCC2)cc1F [Compound 496, 3-[4-[[2-(3-fluoro-4-methyl-phenyl)cyclohexen-1-yl]methoxy]-2,3-dimethyl-phenyl]Propanoic Acid]
EC50: 352 nM

O=C(O)CCc1ccc(OCC2=C(c3ccc(Cl)cc3)CCC(F)(F)C2)c(F)c1F [Compound 503, 3-[4-[[2-(4-chlorophenyl)-5,5-difluoro-cyclohexen-1-yl]methoxy]-2,3-difluoro-phenyl]Propanoic Acid]
EC50: 191 nM

Cc1c(CCC(=O)O)ccc(OCC2=C(c3cccc(Cl)c3)CCCC2)c1C [Compound 509, 3-[4-[[2-(3-chlorophenyl)cyclohexen-1-yl]methoxy]-2,3-dimethyl-phenyl]Propanoic Acid]
EC50: 1790 nM

O=C(O)CCc1cc(F)c(OCC2=C(c3ccc(Cl)cc3)CCCC2)c(F)c1 [Compound 510, 3-[4-[[2-(4-chlorophenyl)cyclohexen-1-yl]methoxy]-3,5-difluoro-phenyl]Propanoic Acid]
EC50: 210 nM

O=C(O)CCc1ccc(OCC2=C(c3ccc(Cl)cc3)CCCC2)c(F)c1 [Compound 511, 3-[4-[[2-(4-chlorophenyl)cyclohexen-1-yl]methoxy]-3-fluoro-phenyl]Propanoic Acid]
EC50: 187 nM

Cc1c(CCC(=O)O)ccc(OCC2=C(c3ccc(N(C)C)cc3)CCCC2)c1C [Compound 512, 3-[4-[[2-(4-dimethylaminophenyl)cyclohexen-1-yl]methoxy]-2,3-dimethyl-phenyl]Propanoic Acid]
EC50: 803 nM

O=C(O)CCc1ccc(OCC2=C(c3ccc(Cl)cc3)CCCC2)c(F)c1F [Compound 513, 3-[4-[[2-(4-chlorophenyl)cyclohexen-1-yl]methoxy]-2,3-difluoro-phenyl]Propanoic Acid]
EC50: 137 nM

O=C(O)CCc1ccc(OCC2=C(c3ccc(Cl)cc3)CCCC2)c2c1CCC2 [Compound 514, 3-[7-[[2-(4-chlorophenyl)cyclohexen-1-yl]methoxy]indan-4-yl]Propanoic Acid]
EC50: 252 nM
